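The compound was tested at five concentrations on cells cultured in 96-well plates, with a 48-hour exposure period. TGI marks complete inhibition of growth.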
Columns and labels:
Assay in all cases: inhibition of tumour cell growth, NCI panel, 48 h
786-0 renal = tested on: 786-0 renal
A498 renal = tested on: A498 renal
A549 NSCLC = tested on: A549 NSCLC
ACHN renal = tested on: ACHN renal
CAKI-1 renal = tested on: CAKI-1 renal
CCRF-CEM leukemia = tested on: CCRF-CEM leukemia
COLO 205 colon = tested on: COLO 205 colon
DLD-1 colon = tested on: DLD-1 colon
DMS 114 small cell lung = tested on: DMS 114 small cell lung
DMS 273 small cell lung = tested on: DMS 273 small cell lung
EKVX NSCLC = tested on: EKVX NSCLC
HCC-2998 colon = tested on: HCC-2998 colon
HCT-116 colon = tested on: HCT-116 colon
HCT-15 colon = tested on: HCT-15 colon
HL-60(TB) leukemia = tested on: HL-60(TB) leukemia
HOP-18 NSCLC = tested on: HOP-18 NSCLC
HT29 colon = tested on: HT29 colon
IGROV1 ovarian = tested on: IGROV1 ovarian
K-562 leukemia = tested on: K-562 leukemia
KM12 colon = tested on: KM12 colon
KM20L2 colon = tested on: KM20L2 colon
LOX IMVI melanoma = tested on: LOX IMVI melanoma
M14 melanoma = tested on: M14 melanoma
M19-MEL melanoma = tested on: M19-MEL melanoma
MALME-3M melanoma = tested on: MALME-3M melanoma
MOLT-4 leukemia = tested on: MOLT-4 leukemia
NCI-H226 lung = tested on: NCI-H226 lung
NCI-H23 lung = tested on: NCI-H23 lung
NCI-H460 lung = tested on: NCI-H460 lung
NCI-H522 lung = tested on: NCI-H522 lung
OVCAR-3 ovarian = tested on: OVCAR-3 ovarian
OVCAR-4 ovarian = tested on: OVCAR-4 ovarian
OVCAR-5 ovarian = tested on: OVCAR-5 ovarian
OVCAR-8 ovarian = tested on: OVCAR-8 ovarian
RPMI-8226 leukemia = tested on: RPMI-8226 leukemia
SF-268 CNS = tested on: SF-268 CNS
SF-295 CNS = tested on: SF-295 CNS
SF-539 CNS = tested on: SF-539 CNS
SK-MEL-2 melanoma = tested on: SK-MEL-2 melanoma
SK-MEL-5 melanoma = tested on: SK-MEL-5 melanoma
SK-OV-3 ovarian = tested on: SK-OV-3 ovarian
SN12C renal = tested on: SN12C renal
SNB-19 CNS = tested on: SNB-19 CNS
SW-620 colon = tested on: SW-620 colon
TK-10 renal = tested on: TK-10 renal
U251 CNS = tested on: U251 CNS
UACC-257 melanoma = tested on: UACC-257 melanoma
UACC-62 melanoma = tested on: UACC-62 melanoma
UO-31 renal = tested on: UO-31 renal
XF 498 CNS = tested on: XF 498 CNS
HOP-62 NSCLC = tested on: HOP-62 NSCLC
HOP-92 NSCLC = tested on: HOP-92 NSCLC
LXFL 529 NSCLC = tested on: LXFL 529 NSCLC
RXF 393 renal = tested on: RXF 393 renal
RXF-631 renal = tested on: RXF-631 renal
SK-MEL-28 melanoma = tested on: SK-MEL-28 melanoma
SNB-75 CNS = tested on: SNB-75 CNS
SNB-78 CNS = tested on: SNB-78 CNS

## CCOC(=O)c1cc(/C=C/C(C)=C/C(=O)OC)oc1-c1ccccc1
786-0 renal
  TGI: > 100 µM
A498 renal
  TGI: > 100 µM
A549 NSCLC
  TGI: > 100 µM
ACHN renal
  TGI: > 100 µM
CAKI-1 renal
  TGI: > 100 µM
CCRF-CEM leukemia
  TGI: > 100 µM
COLO 205 colon
  TGI: > 100 µM
DLD-1 colon
  TGI: > 100 µM
DMS 114 small cell lung
  TGI: > 100 µM
DMS 273 small cell lung
  TGI: > 100 µM
EKVX NSCLC
  TGI: > 100 µM
HCC-2998 colon
  TGI: > 100 µM
HCT-116 colon
  TGI: > 100 µM
HCT-15 colon
  TGI: > 100 µM
HL-60(TB) leukemia
  TGI: > 100 µM
HOP-18 NSCLC
  TGI: > 100 µM
HT29 colon
  TGI: > 100 µM
IGROV1 ovarian
  TGI: > 100 µM
K-562 leukemia
  TGI: > 100 µM
KM12 colon
  TGI: > 100 µM
KM20L2 colon
  TGI: > 100 µM
LOX IMVI melanoma
  TGI: > 100 µM
M14 melanoma
  TGI: > 100 µM
M19-MEL melanoma
  TGI: > 100 µM
MALME-3M melanoma
  TGI: > 100 µM
MOLT-4 leukemia
  TGI: > 100 µM
NCI-H226 lung
  TGI: > 100 µM
NCI-H23 lung
  TGI: > 100 µM
NCI-H460 lung
  TGI: > 100 µM
NCI-H522 lung
  TGI: > 100 µM
OVCAR-3 ovarian
  TGI: > 100 µM
OVCAR-4 ovarian
  TGI: > 100 µM
OVCAR-5 ovarian
  TGI: > 100 µM
OVCAR-8 ovarian
  TGI: > 100 µM
RPMI-8226 leukemia
  TGI: > 100 µM
SF-268 CNS
  TGI: > 100 µM
SF-295 CNS
  TGI: > 100 µM
SF-539 CNS
  TGI: > 100 µM
SK-MEL-2 melanoma
  TGI: > 100 µM
SK-MEL-5 melanoma
  TGI: > 100 µM
SK-OV-3 ovarian
  TGI: > 100 µM
SN12C renal
  TGI: > 100 µM
SNB-19 CNS
  TGI: > 100 µM
SW-620 colon
  TGI: > 100 µM
TK-10 renal
  TGI: > 100 µM
U251 CNS
  TGI: > 100 µM
UACC-257 melanoma
  TGI: > 100 µM
UACC-62 melanoma
  TGI: > 100 µM
UO-31 renal
  TGI: > 100 µM
XF 498 CNS
  TGI: > 100 µM

## COc1ccc(C2=Nc3ccccc3SC(C)C2)cc1 (stereo not given)
786-0 renal
  TGI: > 100 µM
A498 renal
  TGI: > 100 µM
A549 NSCLC
  TGI: > 100 µM
ACHN renal
  TGI: > 100 µM
CAKI-1 renal
  TGI: > 100 µM
CCRF-CEM leukemia
  TGI: > 100 µM
COLO 205 colon
  TGI: > 100 µM
DLD-1 colon
  TGI: > 100 µM
DMS 114 small cell lung
  TGI: > 100 µM
DMS 273 small cell lung
  TGI: > 100 µM
EKVX NSCLC
  TGI: > 100 µM
HCC-2998 colon
  TGI: > 100 µM
HCT-116 colon
  TGI: 33 µM
HCT-15 colon
  TGI: > 100 µM
HL-60(TB) leukemia
  TGI: > 100 µM
HOP-62 NSCLC
  TGI: > 100 µM
HOP-92 NSCLC
  TGI: > 100 µM
HT29 colon
  TGI: > 100 µM
IGROV1 ovarian
  TGI: > 100 µM
K-562 leukemia
  TGI: 83.3 µM
KM12 colon
  TGI: > 100 µM
KM20L2 colon
  TGI: > 100 µM
LOX IMVI melanoma
  TGI: > 100 µM
LXFL 529 NSCLC
  TGI: > 100 µM
M14 melanoma
  TGI: > 100 µM
M19-MEL melanoma
  TGI: > 100 µM
MALME-3M melanoma
  TGI: > 100 µM
MOLT-4 leukemia
  TGI: > 100 µM
NCI-H226 lung
  TGI: > 100 µM
NCI-H23 lung
  TGI: > 100 µM
NCI-H460 lung
  TGI: > 100 µM
NCI-H522 lung
  TGI: > 100 µM
OVCAR-3 ovarian
  TGI: > 100 µM
OVCAR-4 ovarian
  TGI: > 100 µM
OVCAR-5 ovarian
  TGI: > 100 µM
OVCAR-8 ovarian
  TGI: > 100 µM
RPMI-8226 leukemia
  TGI: 60.2 µM
RXF 393 renal
  TGI: > 100 µM
RXF-631 renal
  TGI: > 100 µM
SF-268 CNS
  TGI: > 100 µM
SF-295 CNS
  TGI: > 100 µM
SF-539 CNS
  TGI: > 100 µM
SK-MEL-2 melanoma
  TGI: > 100 µM
SK-MEL-28 melanoma
  TGI: > 100 µM
SK-OV-3 ovarian
  TGI: > 100 µM
SN12C renal
  TGI: > 100 µM
SNB-19 CNS
  TGI: > 100 µM
SNB-75 CNS
  TGI: > 100 µM
SNB-78 CNS
  TGI: > 100 µM
SW-620 colon
  TGI: > 100 µM
TK-10 renal
  TGI: > 100 µM
U251 CNS
  TGI: > 100 µM
UACC-257 melanoma
  TGI: > 100 µM
UACC-62 melanoma
  TGI: > 100 µM
UO-31 renal
  TGI: > 100 µM
